MIC, LC30 and IC50 data for 21 compounds are collected here from ChEMBL document CHEMBL3098096, “Design, synthesis and antibacterial activities of 5-(pyrazin-2-yl)-4H-1,2,4-triazole-3-thiol derivatives containing Schiff base formation as FabH inhibitory” (Bioorg Med Chem Lett, 2014).

For data set [1], the system named is Bacillus amyloliquefaciens. Kind of data set: Antimicrobial activity against Bacillus amyloliquefaciens 23842 assessed as […] growth inhibition after 24 hrs by two-fold serial broth dilution method. The data set is classed as functional. The settings on record: Bacillus amyloliquefaciens, 23842, 24 h.
Another data set has as its system Bacillus subtilis. Kind of data set: Antimicrobial activity against Bacillus subtilis ATCC 530 assessed as […] growth inhibition after 24 hrs by two-fold serial broth dilution method. The class given is functional. The following applies: ATCC 530, 24 h.
A short description of data set [2]: Toxicity in human erythrocytes assessed as hemolytic activity by spectrophotometric analysis. The class given is cell-based. The settings on record: erythrocyte.
Another data set relates to Staphylococcus aureus. Kind of data set: Antimicrobial activity against Staphylococcus aureus ATCC 25923 assessed as […] growth inhibition after 24 hrs by two-fold serial broth dilution method. The data set is classed as functional. The settings on record: ATCC 25923, 24 h.
The target in data set [3] is T1, 3-oxoacyl-[acyl-carrier-protein] synthase 3 (Escherichia coli, UniProt C3TDZ2).
T1 sequence (C3TDZ2 whole entry): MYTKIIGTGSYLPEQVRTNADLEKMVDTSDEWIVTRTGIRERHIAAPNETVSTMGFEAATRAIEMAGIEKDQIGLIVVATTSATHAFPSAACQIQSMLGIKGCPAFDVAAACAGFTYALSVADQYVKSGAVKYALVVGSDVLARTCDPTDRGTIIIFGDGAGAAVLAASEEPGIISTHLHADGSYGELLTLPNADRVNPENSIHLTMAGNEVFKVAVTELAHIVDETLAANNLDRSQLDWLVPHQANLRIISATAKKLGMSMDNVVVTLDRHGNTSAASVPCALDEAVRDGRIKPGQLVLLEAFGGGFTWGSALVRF
Kind of data set: Inhibition of Escherichia coli FabH overexpressed in Escherichia coli DH10B cells assessed as incorporation of [3H] in the product after 25 mins by liquid scintillation counting analysis.

Another data set deals with Escherichia coli. Put plainly: Antimicrobial activity against Escherichia coli ATCC 25922 assessed as […] growth inhibition after 24 hrs by two-fold serial broth dilution method. The data set is classed as functional. The following applies: ATCC 25922, 24 h.
In another data set the test system is Pseudomonas aeruginosa. Kind of data set: Antimicrobial activity against Pseudomonas aeruginosa ATCC 27853 assessed as […] growth inhibition after 24 hrs by two-fold serial broth dilution method. The data set is classed as functional. The settings on record: ATCC 27853, 24 h.
A further data set has as its system NIH3T3. Put plainly: Cytotoxicity against mouse NIH/3T3 cells after 24 hrs by MTT assay. The class given is cell-based. The settings on record: NIH3T3, 24 h.

SMILES strings stand for the structures. Values after ≈ are worked out from the molar mass of the structure shown.

In the case of `COc1ccc(/C=N/n2c(S)nnc2-c2cnccn2)cc1OC`, the minimal inhibitory concentration (MIC) is 25 µg/mL (≈ 73 µM) in data set [1]; 25 µg/mL (≈ 73 µM) with Bacillus subtilis; 12.5 µg/mL (≈ 36.5 µM) in the data set on Staphylococcus aureus; 25 µg/mL (≈ 73 µM) in the data set with Escherichia coli; 50 µg/mL (≈ 146 µM) in the data set on Pseudomonas aeruginosa. The LC30 in data set [2] is more than 10000 µg/mL. Moreover, the IC50 in data set [3] was found to be 45.5 µM; in the data set with NIH3T3, 163 µM.
As for `COc1cc(OC)c(OC)cc1/C=N/n1c(S)nnc1-c1cnccn1`, the MIC in data set [1] was determined as 6.25 µg/mL (≈ 16.8 µM); in the data set on Bacillus subtilis, 3.13 µg/mL (≈ 8.4 µM); in the data set on Staphylococcus aureus, 25 µg/mL (≈ 67.1 µM); in the data set on Escherichia coli it was 6.25 µg/mL (≈ 16.8 µM); with Pseudomonas aeruginosa it was 12.5 µg/mL (≈ 33.6 µM). Moreover, the LC30 in data set [2] is more than 10000 µg/mL. Also, the IC50 turned out to be 12.8 µM in data set [3] and 142 µM with NIH3T3.
As to `COc1cc(/C=N/n2c(S)nnc2-c2cnccn2)cc(OC)c1OC`, the MIC came out at 25 µg/mL (≈ 67.1 µM) in data set [1]; 6.25 µg/mL (≈ 16.8 µM) in the data set with Bacillus subtilis; 12.5 µg/mL (≈ 33.6 µM) with Staphylococcus aureus; 6.25 µg/mL (≈ 16.8 µM) in the data set on Escherichia coli; 12.5 µg/mL (≈ 33.6 µM) in the data set with Pseudomonas aeruginosa. Moreover, the LC30 in data set [2] was more than 10000 µg/mL. The IC50 in data set [3] was determined as 15.1 µM; in the data set on NIH3T3, 169 µM.
In the case of `COc1ccccc1/C=N/n1c(S)nnc1-c1cnccn1`, the MIC was 25 µg/mL (≈ 80 µM) in data set [1]; 25 µg/mL (≈ 80 µM) in the data set on Bacillus subtilis; 25 µg/mL (≈ 80 µM) with Staphylococcus aureus; 12.5 µg/mL (≈ 40 µM) with Escherichia coli; 25 µg/mL (≈ 80 µM) in the data set on Pseudomonas aeruginosa. In addition, the LC30 in data set [2] is more than 10000 µg/mL. Moreover, the IC50 in data set [3] was 22.9 µM; in the data set with NIH3T3, 173 µM.
Consider `COc1cccc(/C=N/n2c(S)nnc2-c2cnccn2)c1`, for which the MIC in data set [1] is 50 µg/mL (≈ 160 µM); in the data set with Bacillus subtilis, 50 µg/mL (≈ 160 µM); in the data set on Staphylococcus aureus, more than 50 µg/mL; in the data set on Escherichia coli, 25 µg/mL (≈ 80 µM); in the data set with Pseudomonas aeruginosa it was 50 µg/mL (≈ 160 µM).
Consider `O=[N+]([O-])c1ccc(/C=N/n2c(S)nnc2-c2cnccn2)cc1`, for which the MIC was 50 µg/mL (≈ 153 µM) in data set [1]; 25 µg/mL (≈ 76.4 µM) in the data set on Bacillus subtilis; more than 50 µg/mL in the data set on Staphylococcus aureus; 25 µg/mL (≈ 76.4 µM) in the data set on Escherichia coli; 25 µg/mL (≈ 76.4 µM) with Pseudomonas aeruginosa.
On to `Oc1ccc(/C=N/n2c(S)nnc2-c2cnccn2)cc1`, for which the MIC in data set [1] came to 25 µg/mL (≈ 83.8 µM); in the data set with Bacillus subtilis, 25 µg/mL (≈ 83.8 µM); in the data set on Staphylococcus aureus, 50 µg/mL (≈ 168 µM); with Escherichia coli, 12.5 µg/mL (≈ 41.9 µM); in the data set with Pseudomonas aeruginosa, 25 µg/mL (≈ 83.8 µM). Further, the LC30 in data set [2] was more than 10000 µg/mL. For the same compound, the values for the IC50 (in data set [3]; in the data set with NIH3T3) were 29.3 µM and 175 µM, respectively.
Take `Oc1ccccc1/C=N/n1c(S)nnc1-c1cnccn1`: the MIC was 0.78 µg/mL (≈ 2.61 µM) in data set [1]; 0.78 µg/mL (≈ 2.61 µM) in the data set on Bacillus subtilis; 1.56 µg/mL (≈ 5.23 µM) in the data set on Staphylococcus aureus; 0.39 µg/mL (≈ 1.31 µM) in the data set on Escherichia coli; 1.56 µg/mL (≈ 5.23 µM) with Pseudomonas aeruginosa. Further, the LC30 in data set [2] was more than 10000 µg/mL. Besides, the IC50 in data set [3] turned out to be 5.2 µM; in the data set on NIH3T3 it was 131 µM.
As for `Oc1cccc(/C=N/n2c(S)nnc2-c2cnccn2)c1`, the MIC in data set [1] is 50 µg/mL (≈ 168 µM); in the data set with Bacillus subtilis, 50 µg/mL (≈ 168 µM); in the data set on Staphylococcus aureus, more than 50 µg/mL; in the data set on Escherichia coli it was 25 µg/mL (≈ 83.8 µM); in the data set with Pseudomonas aeruginosa it was 25 µg/mL (≈ 83.8 µM). Also, in data set [2], the LC30 is more than 10000 µg/mL. The figures for the IC50 (in data set [3]; with NIH3T3) were 48.3 µM and 151 µM, respectively.
`Oc1ccc(/C=N/n2c(S)nnc2-c2cnccn2)cc1O`: the MIC was 25 µg/mL (≈ 79.5 µM) in data set [1]; 25 µg/mL (≈ 79.5 µM) in the data set with Bacillus subtilis; 25 µg/mL (≈ 79.5 µM) in the data set with Staphylococcus aureus; 12.5 µg/mL (≈ 39.8 µM) with Escherichia coli; 12.5 µg/mL (≈ 39.8 µM) in the data set on Pseudomonas aeruginosa. Besides, in data set [2], the LC30 was more than 10000 µg/mL. In addition, the figures for the IC50 (in data set [3]; with NIH3T3) were 24.6 µM and 148 µM, respectively.
For `Sc1nnc(-c2cnccn2)n1/N=C/C=C/c1ccccc1`, the MIC in data set [1] is 50 µg/mL (≈ 162 µM); with Bacillus subtilis, 25 µg/mL (≈ 81.1 µM); in the data set with Staphylococcus aureus it was 50 µg/mL (≈ 162 µM); with Escherichia coli, 12.5 µg/mL (≈ 40.5 µM); in the data set on Pseudomonas aeruginosa it was 25 µg/mL (≈ 81.1 µM).
Consider `Sc1nnc(-c2cnccn2)n1/N=C/c1ccc(Br)cc1`, for which the MIC in data set [1] stood at 25 µg/mL (≈ 69.2 µM); in the data set on Bacillus subtilis it was 25 µg/mL (≈ 69.2 µM); in the data set with Staphylococcus aureus, 50 µg/mL (≈ 138 µM); with Escherichia coli, 50 µg/mL (≈ 138 µM); with Pseudomonas aeruginosa, 50 µg/mL (≈ 138 µM).
Turning to `Sc1nnc(-c2cnccn2)n1/N=C/c1ccccc1`, the MIC in data set [1] is 50 µg/mL (≈ 177 µM); in the data set on Bacillus subtilis, 25 µg/mL (≈ 88.5 µM); in the data set with Staphylococcus aureus, 50 µg/mL (≈ 177 µM); in the data set on Escherichia coli, 25 µg/mL (≈ 88.5 µM); in the data set with Pseudomonas aeruginosa it was 25 µg/mL (≈ 88.5 µM).
As to `Fc1ccc(/C=N/n2c(S)nnc2-c2cnccn2)cc1`, the MIC was 50 µg/mL (≈ 166 µM) in data set [1]; 50 µg/mL (≈ 166 µM) in the data set with Bacillus subtilis; 50 µg/mL (≈ 166 µM) in the data set on Staphylococcus aureus; 25 µg/mL (≈ 83.2 µM) with Escherichia coli; more than 50 µg/mL in the data set on Pseudomonas aeruginosa.
`Sc1nnc(-c2cnccn2)n1/N=C/c1ccc(Cl)cc1`: the MIC in data set [1] was 50 µg/mL (≈ 158 µM); in the data set with Bacillus subtilis, more than 50 µg/mL; in the data set with Staphylococcus aureus, 50 µg/mL (≈ 158 µM); with Escherichia coli it was 50 µg/mL (≈ 158 µM); in the data set on Pseudomonas aeruginosa, more than 50 µg/mL. Also, the LC30 in data set [2] is more than 10000 µg/mL. Besides, the values for the IC50 (in data set [3]; in the data set on NIH3T3) were more than 100 µM and 218 µM, respectively.
For the compound `Cc1ccc(/C=N/n2c(S)nnc2-c2cnccn2)cc1`, the MIC is 25 µg/mL (≈ 84.4 µM) in data set [1]; 25 µg/mL (≈ 84.4 µM) in the data set on Bacillus subtilis; 25 µg/mL (≈ 84.4 µM) with Staphylococcus aureus; 12.5 µg/mL (≈ 42.2 µM) in the data set on Escherichia coli; 50 µg/mL (≈ 169 µM) in the data set on Pseudomonas aeruginosa. Moreover, the LC30 in data set [2] was more than 10000 µg/mL. In addition, the IC50 turned out to be 27.1 µM in data set [3] and 156 µM in the data set on NIH3T3.
As for `COc1ccc(/C=N/n2c(S)nnc2-c2cnccn2)cc1`, the MIC in data set [1] worked out at 25 µg/mL (≈ 80 µM); with Bacillus subtilis, 50 µg/mL (≈ 160 µM); in the data set with Staphylococcus aureus, 50 µg/mL (≈ 160 µM); with Escherichia coli it was 12.5 µg/mL (≈ 40 µM); in the data set on Pseudomonas aeruginosa, 25 µg/mL (≈ 80 µM).
Consider `Fc1ccccc1/C=N/n1c(S)nnc1-c1cnccn1`, for which the MIC was 50 µg/mL (≈ 166 µM) in data set [1]; 50 µg/mL (≈ 166 µM) in the data set with Bacillus subtilis; 50 µg/mL (≈ 166 µM) in the data set with Staphylococcus aureus; 25 µg/mL (≈ 83.2 µM) with Escherichia coli; 50 µg/mL (≈ 166 µM) with Pseudomonas aeruginosa.
With `Fc1cccc(/C=N/n2c(S)nnc2-c2cnccn2)c1`, the MIC in data set [1] was 50 µg/mL (≈ 166 µM); in the data set on Bacillus subtilis it was more than 50 µg/mL; in the data set on Staphylococcus aureus, 50 µg/mL (≈ 166 µM); with Escherichia coli it was 25 µg/mL (≈ 83.2 µM); in the data set on Pseudomonas aeruginosa, more than 50 µg/mL.
Turning to `Sc1nnc(-c2cnccn2)n1/N=C/c1ccc(Cl)cc1Cl`, the MIC in data set [1] was more than 50 µg/mL; with Bacillus subtilis, more than 50 µg/mL; with Staphylococcus aureus, 50 µg/mL (≈ 142 µM); in the data set with Escherichia coli, 50 µg/mL (≈ 142 µM); with Pseudomonas aeruginosa, more than 50 µg/mL. Besides, the LC30 in data set [2] is more than 10000 µg/mL. The results for the IC50 (in data set [3]; in the data set on NIH3T3) were more than 100 µM and 206 µM, respectively.
On to `NC[C@H]1O[C@H](O[C@H]2[C@H](O)[C@@H](O[C@H]3O[C@H](CO)[C@@H](O)[C@H](N)[C@H]3O)[C@H](N)C[C@@H]2N)[C@H](N)[C@@H](O)[C@@H]1O` [BEKANAMYCIN], for which the MIC in data set [1] was 1.56 µg/mL (≈ 3.23 µM); in the data set on Bacillus subtilis, 3.13 µg/mL (≈ 6.47 µM); in the data set on Staphylococcus aureus it was 1.56 µg/mL (≈ 3.23 µM); in the data set on Escherichia coli, 3.13 µg/mL (≈ 6.47 µM); in the data set on Pseudomonas aeruginosa, 1.56 µg/mL (≈ 3.23 µM). Further, in data set [2], the LC30 is more than 10000 µg/mL. For the same compound, the IC50 was 6.3 µM in data set [3] and 140 µM in the data set on NIH3T3.
